Measurements as given in PubChem BioAssay AID1996.
Converted amounts (≈) assume the structure as drawn.

conditions: buffer; pH 7.4; 200.0 µM

solubility kinetic | SMILES
6.6 µg/mL (≈ 20.3 µM) | CC(C)(C)NC(=O)CSc1nc(-c2ccc(F)cc2)cs1
> 37.1 µg/mL | CC1CCCN(C(=O)c2ccc3c(c2)OCO3)C1 (stereo not given)
> 36.9 µg/mL | CC(=O)N[C@H](Cc1c[nH]c2ccccc12)C(=O)O
40.3 µg/mL (≈ 147 µM) | CCN(CC)C(=S)Nc1ccc(OC(F)F)cc1
1.9 µg/mL (≈ 6.75 µM) | COc1ccc2[nH]c(C(=O)Nc3cccc(C)n3)cc2c1
> 51.4 µg/mL | COc1ccc(CN(C)CC(=O)Nc2c(C)cccc2C)c(OC)c1
37.9 µg/mL (≈ 127 µM) | O=C(NCc1ccc(F)cc1)c1ccc(Br)o1
> 39.7 µg/mL | O=C(NC1CCCCC1)C1CCC(=O)N(C2CC2)C1 (stereo not given)
51.5 µg/mL (≈ 125 µM) | CC(C)(C)N1C(=O)c2ccc(C(=O)Nc3cc(C(=O)O)cc(C(=O)O)c3)cc2C1=O
> 35.4 µg/mL | O=C(Nc1nnc2n1CCS2)c1ccco1
35.4 µg/mL (≈ 102 µM) | COc1ccc2nc(S(=O)Cc3ncc(C)c(OC)c3C)[nH]c2c1 (stereo not given)
28.1 µg/mL (≈ 110 µM) | O=C(c1cccc(F)c1)N1CCCc2ccccc21
36.9 µg/mL (≈ 112 µM) | Cc1[nH]c(=O)[nH]c(=S)c1C(=O)Nc1ccc(Cl)c(Cl)c1
32.3 µg/mL (≈ 105 µM) | C=CCN1CCN(C(=O)c2ccc(-c3ccccc3)cc2)CC1
< 0.2 µg/mL | Cc1cc(Cl)nc(-c2ccccc2O)n1
35.5 µg/mL (≈ 134 µM) | Cc1csc(SCC(=O)Nc2ccccc2)n1
> 34.7 µg/mL | N#C/C=C/N1CCN(C(=O)c2ccco2)CC1
37 µg/mL (≈ 120 µM) | COc1nc(OC)nc(N2CCC(C(=O)NC3CC3)CC2)n1
> 49.3 µg/mL | CSc1ccc(CN(C)CC(=O)NCCc2ccccc2)cc1
39.7 µg/mL (≈ 147 µM) | Cc1ccc(-c2c(C)sc3nc[nH]c(=O)c23)cc1C

solubility kinetic | SMILES
> 46 µg/mL | CC(C)CN(CC(C)C)C(=O)COc1ccccc1C(N)=O
5 µg/mL (≈ 16.4 µM) | CCOC(=O)c1[nH]cnc1C(=O)Nc1ccc([N+](=O)[O-])cc1
33.6 µg/mL (≈ 121 µM) | Oc1c(Cl)cc(CN2CCOCC2)c2cccnc12
37.8 µg/mL (≈ 114 µM) | CC(C)c1ccc(NC(=O)CCCN2C(=O)NC(C)(C)C2=O)cc1
20.5 µg/mL (≈ 62.4 µM) | COc1ccc(C(=O)NC(C)CCc2ccccc2)cc1[N+](=O)[O-] (stereo not given)
> 65.8 µg/mL | Cc1ccc([N+](=O)[O-])cc1S(=O)(=O)Nc1cccc(S(=O)(=O)NC2=NCCC2)c1
43.7 µg/mL (≈ 126 µM) | Cc1cc(C)cc(NC(=S)N(CCN(C)C)Cc2cccs2)c1
29.9 µg/mL (≈ 93.2 µM) | COc1cccc(CNC(=S)Nc2cccc(Cl)c2C)c1
> 49.1 µg/mL | Cc1ccc(Br)cc1S(=O)(=O)Nc1cccnc1
34.2 µg/mL (≈ 104 µM) | CCn1c(=S)[nH]c2cc(S(=O)(=O)N3CCOCC3)ccc21
> 57.4 µg/mL | COc1cccc(CNC(=O)CCCC(=O)NC(C)CCc2ccccc2)c1 (stereo not given)
37.1 µg/mL (≈ 137 µM) | CC(NC(=O)CSc1ccccc1)c1ccccc1 (stereo not given)
> 44.6 µg/mL | COc1cc(C2=NC(CO)(CO)CO2)cc(OC)c1OC
> 47.9 µg/mL | CCCCn1c(SCC(=O)N(C)C)nnc1-c1ccncc1
> 40.3 µg/mL | Cc1ccc(Cl)cc1NC(=O)CN1CCOCC1
18.1 µg/mL (≈ 42.8 µM) | CCOc1ccc(S(=O)(=O)/N=C(/Nc2ccc(C(C)=O)cc2)c2ccccc2)cc1
28.5 µg/mL (≈ 91 µM) | Cc1cc(C)c(C)c(OCC(=O)O/N=C(\N)c2ccncc2)c1
13 µg/mL (≈ 39.6 µM) | COc1ccc(C(=O)CN2CCN(c3ccc(F)cc3)CC2)cc1
> 50.1 µg/mL | CN(C)CCCOC(=O)c1sc2ccccc2c1Cl.Cl
50.3 µg/mL (≈ 144 µM) | Cc1ncoc1C(=O)N1CCCC(C(=O)c2cccc3ccccc23)C1 (stereo not given)

solubility kinetic | SMILES
33 µg/mL (≈ 125 µM) | Cc1nccc(-c2ccc(-n3c(C)ccc3C)cc2)n1
27.6 µg/mL (≈ 77 µM) | COCCNC(=O)c1ccc(CSc2nc3ccccc3s2)cc1
1.9 µg/mL (≈ 7.08 µM) | Cc1ccccc1CN1CCc2cc([N+](=O)[O-])ccc21
10.6 µg/mL (≈ 33 µM) | COc1ccc(NC(=O)c2ccc(Oc3ncccn3)cc2)cc1
41.7 µg/mL (≈ 149 µM) | c1ccc(N2CCN(c3nc4ccccc4[nH]3)CC2)nc1
29.4 µg/mL (≈ 141 µM) | Cc1ccc(NC(=S)N(C)C)cc1C
41.8 µg/mL (≈ 145 µM) | N#Cc1cccc(NC(=O)c2cncn2-c2ccccc2)c1
25.5 µg/mL (≈ 67.9 µM) | CCCS(=O)(=O)c1ccc(COC(=O)c2ccc(NC(C)=O)cc2)cc1
23.3 µg/mL (≈ 87.4 µM) | O=[N+]([O-])c1cc(Cl)ccc1Sc1ccccn1
7.5 µg/mL (≈ 24.3 µM) | Cc1ccc(CCC(=O)Nc2ccc([N+](=O)[O-])cc2Cl)o1
< 0.7 µg/mL | COc1ccc(C(=O)Nc2ccc(C3CC3(Cl)Cl)cc2)cc1 (stereo not given)
36.2 µg/mL (≈ 128 µM) | CNC(=O)COC(=O)CCC(=O)c1ccc(Cl)cc1
33 µg/mL (≈ 112 µM) | CCCNC(=O)c1ccc(COc2ccc(Cl)cc2)o1
27.5 µg/mL (≈ 139 µM) | Cc1cccc(/N=C/c2ccccn2)n1
> 43.2 µg/mL | Oc1cccc(/C=N/NC(=S)Nc2cccnc2)c1O
0.3 µg/mL (≈ 1.13 µM) | Cc1ccccc1CSc1ncnc2ccccc12
2.9 µg/mL (≈ 10.5 µM) | NC(=O)c1ccccc1OCc1cccc2ccccc12
> 48.4 µg/mL | COc1ccccc1N(Cc1cc(=O)[nH]c2ccccc12)C(C)=O
> 44.4 µg/mL | C/C(=N/NC(=O)CNC(=O)c1cccnc1)c1ccccc1
> 33.2 µg/mL | C=CCSc1nc(C)cc2c1C(=O)OC2
